biological target: T1, human CXCR3 (N-delta 4) (Homo sapiens, UniProt P49682); test: Human CXCR3 (N-delta 4) Scintillation Proximity Assay (SPA), [125I] IP-10 binding to Ba/F3-hCXCR3 membranes; settings: IC50 rating, Table 1; read-out: IC50
T1 construct: CD8 leader (N); Flag; expressed in transfected cells; membranes prepared
T1 sequence (P49682 5-368 limits assumed): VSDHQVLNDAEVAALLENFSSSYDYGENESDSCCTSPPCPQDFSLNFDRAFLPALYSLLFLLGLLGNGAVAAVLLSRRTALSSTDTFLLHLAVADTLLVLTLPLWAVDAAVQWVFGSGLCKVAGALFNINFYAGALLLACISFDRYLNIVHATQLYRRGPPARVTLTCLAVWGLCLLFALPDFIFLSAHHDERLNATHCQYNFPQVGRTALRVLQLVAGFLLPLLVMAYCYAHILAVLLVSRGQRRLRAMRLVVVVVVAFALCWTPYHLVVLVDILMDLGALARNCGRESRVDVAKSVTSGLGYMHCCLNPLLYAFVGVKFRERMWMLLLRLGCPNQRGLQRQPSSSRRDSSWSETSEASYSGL

IC50, < 25 nM:
CC[C@H]1CN(c2nc(N)c(C(=O)NCCO)nc2Cl)CCN1C1CCN(Cc2ccc(Cl)cc2OCCNS(C)(=O)=O)CC1 [compound 130]
CC[C@H]1CN(c2nc(N)c(C(=O)NCCO)nc2Cl)CCN1C1CCN(Cc2ccc(Cl)cc2OCCNC(=O)NC2CCCCC2)CC1 [compound 131]
CC[C@H]1CN(c2nc(N)c(C(=O)NCCO)nc2Cl)CCN1C1CCN(Cc2ccc(Cl)cc2OCCNS(=O)(=O)C(F)(F)F)CC1 [compound 132]
CC[C@H]1CN(c2nc(N)c(C(=O)NCCO)nc2Cl)CCN1C1CCN(Cc2ccc(F)cc2)CC1 [compound 133]
CC[C@H]1CN(c2nc(N)c(C(=O)NCCO)nc2Cl)CCN1C1CCN(Cc2ccc(Cl)cc2OCCNS(N)(=O)=O)CC1 [compound 134]
CC[C@H]1CN(c2nc(N)c(C(=O)NCCO)nc2Cl)CCN1C1CCN(Cc2ccc(F)c(F)c2N2CC[C@@H](O)C2)CC1 [compound 135]
CC[C@H]1CN(c2nc(N)c(C(=O)NCCO)nc2Cl)CCN1C1CCN(Cc2ccc(Cl)cc2C#N)CC1 [compound 136]
CC[C@H]1CN(c2nc(N)c(C(=O)NCCO)nc2Cl)CCN1C1CCN(Cc2ccc(Cl)cc2OCCNC(=O)NC(C)(C)C)CC1 [compound 137]
CC[C@H]1CN(c2nc(N)c(C(=O)NCCO)nc2Cl)CCN1C1CCN(Cc2ccc(Cl)cc2O)CC1 [compound 138]
CC[C@H]1CN(c2nc(N)c(C(=O)NCCO)nc2Cl)CCN1C1CCN(Cc2cc(F)c(Cl)cc2OCCCO)CC1 [compound 139]
CC[C@H]1CN(c2nc(N)c(C(=O)NCCO)nc2Cl)CCN1C1CCN(Cc2ccc(-c3ccc(F)cc3)cc2)CC1 [compound 140]
CC[C@H]1CN(c2nc(N)c(C(=O)NCCO)nc2Cl)CCN1C1CCN(Cc2ccc(Cl)cc2N2CC[C@@H](O)C2)CC1 [compound 141]
CC[C@H]1CN(c2nc(N)c(C(=O)NCCO)nc2Cl)CCN1C1CCN(Cc2ccc(Cl)cc2C(=O)OC)CC1 [compound 142]
CC[C@H]1CN(c2nc(N)c(C(=O)NCCO)nc2Cl)CCN1C1CCN(Cc2cc(F)c(Cl)cc2OCCOC)CC1 [compound 143]
CC[C@H]1CN(c2nc(N)c(C(=O)NCCO)nc2Cl)CCN1C1CCN(Cc2ccc(C#CC(C)(C)O)cc2)CC1 [compound 144]
CC[C@H]1CN(c2nc(N)c(C(=O)NCCO)nc2Cl)CCN1C1CCN(Cc2ccc(Cl)cc2C(C)(C)O)CC1 [compound 145]
CC[C@H]1CN(c2nc(N)c(C(=O)NCCO)nc2Cl)CCN1C1CCN(Cc2ccc(C#N)cc2OCC(=O)NCCO)CC1 [compound 146]
CC[C@H]1CN(c2nc(N)c(C(=O)NCCO)nc2Cl)CCN1C1CCN(Cc2ccc(Cl)cc2OCCNS(=O)(=O)N(C)C)CC1 [compound 147]
CCNC(=O)NCCC(c1ccc(Cl)cc1)N1CCC(N2CCN(c3nc(N)c(C(=O)NCCO)nc3Cl)C[C@@H]2CC)CC1 (stereo partly drawn) [compound 148]
CC[C@H]1CN(c2nc(N)c(C(=O)NCCO)nc2Cl)CCN1C1CCN(Cc2ccc(Cl)cc2OCC(N)=O)CC1 [compound 149]
CC[C@H]1CN(c2nc(N)c(C(=O)NCCO)nc2Cl)CCN1C1CCN([C@@H](C(=O)OC)c2ccc(Cl)cc2)CC1 [compound 150]
CC[C@H]1CN(c2nc(N)c(C(=O)NCCO)nc2Cl)CCN1C1CCN(Cc2ccc(Cl)cc2C(=N)NC)CC1 [compound 151]
CC[C@H]1CN(c2nc(N)c(C(=O)NCCO)nc2Cl)CCN1C1CCN(Cc2ccc(OC)cc2O)CC1 [compound 152]
CC[C@H]1CN(c2nc(N)c(C(=O)NCCO)nc2Cl)CCN1C1CCN([C@H](CO)c2ccc(C#N)cc2)CC1 [compound 153]

Reference: patent publication US7868005B2, “Pyrazinyl substituted piperazine-piperidines with CXCR3 antagonist activity” (Schering Corporation, priority 2005, dated 2011)
